Results published in patent US6495699B2, “Metalloproteinase inhibitors, pharmaceutical compositions containing them, and their use” (Agouron Pharmaceuticals Inc., priority 1996, dated 2002).
Structures can show the parent of a compound that is named as a salt.

What was measured:
[1] = biological target: T1, catalytic domain of human stromelysin (Hsln) (Homo sapiens, UniProt P08254); experiment: Fluorometric MCA-peptide hydrolysis assay, stromelysin (Hsln); format: biochemical; conditions: apparent Ki; 10 μM MCA peptide substrate, 37° C., pH 7.5; read-out: Hsln (Ki,app)
T1 construct: The catalytic domain of human stromelysin (Hsln) was obtained by expression and purification of a C-terminally truncated prostromelysin-1; made in house; host or cells: E. coli BL21
Method: The catalytic domain of human stromelysin (Hsln) was obtained by expression and purification of a C-terminally truncated prostromelysin-1 from E. coli host BL21 (see Marcy et al. Biochem., 1991, 30, 6476). The subsequent activation of the mature form (Hsln) was completed with 2 mM APMA for 1 hour at 37° C., followed by separation using a sizing column.
(§1) Assays were performed in assay buffer (50 mM Tricine pH 7.5, 200 mM sodium chloride, 10 mM calcium chloride, 0.5 mM zinc acetate containing 2% dimethyl sulfoxide (DMSO)) once the substrate and inhibitor were diluted into it. Stock solutions of inhibitors were prepared in 100% DMSO. Stock solutions of the substrate were prepared in 100% DMSO at a concentration of 6 mM.
(§2) The assay method was based on the hydrolysis of MCA-Pro-Leu-Gly-Leu-DPA-Ala-Arg-NH2 (American Peptide Co.) at 37° C. (see Knight, C. G. et al., FEBS, 1992, 296, 263-266). The fluorescence changes were monitored with a Perkin-Elmer LS-50B fluorimeter using an excitation wavelength of 328 nm and an emission wavelength of 393 nm. The substrate concentration used in the assays was 10 μM. The inhibitor was diluted into the assays from a solution in 100% DMSO, and controls substituted an equal volume of DMSO so that the final DMSO concentration from inhibitor and substrate dilution in all assays was 2%. […] Proper determination of steady-state rates of substrate cleavage required assay lengths of 60 minutes to allow for complete equilibration of the enzyme-inhibitor complex.
(§3) The Km for the MCA peptide substrate with the matrix metalloproteinases is quite high and exceeds its solubility under assay conditions. Consequently, the apparent Ki (Ki,app) was determined to describe the strength of inhibition. However, in this case, Ki,app would be essentially equal to Ki since [S]<<Km. For the determination of Ki,app, the concentration of the inhibitor was varied at a constant and low concentration of substrate and the steady-state rates of fluorescence change determined. In most cases absorptive quench due to the presence of ligand was not observed. For slow-binding inhibitors, onset of inhibition curves were collected for at least 45 minutes so that equilibrium was established. Steady-state rates of fluorescence change were obtained by fitting a curve to an equation for a single exponential decay containing a linear phase. The fitted value of the linear phase was taken as the steady-state rate. The steady-state rates were fitted to the Michaelis equation describing competitive inhibition by non-linear methods. Data resulting from tight-binding inhibition was analyzed, and Ki,app determined by fitting the data to the tight-binding equation of Morrison (Biochem. Biophys. Acta, vol. 185, pp. 269-286 (1969)) by non-linear methods.

[2] = biological target: T2, human collagenase-3 (Coll3) (Homo sapiens, UniProt P45452); experiment: Fluorometric MCA-peptide hydrolysis assay, collagenase-3 (Coll3); format: biochemical; conditions: apparent Ki; 10 μM MCA peptide substrate, 37° C., pH 7.5; read-out: Coll3 (Ki,app)
T2 construct: the catalytic domain was liberated by treatment with 2 mM APMA at room temperature overnight; ubiquitin (N, cleaved yes); made in house; host or cells: E. coli
Method: The propeptide and catalytic domain of human collagenase-3 (Coll3) was expressed in E. coli as an N-terminal fusion protein with ubiquitin. After purification of the fusion from inclusion bodies, the catalytic domain was liberated by treatment with 2 mM APMA at room temperature overnight. Final purification was completed using copper chelate chromatography.
as §1, §2
as §3, with “In most cases absorptive quench due to the presence of ligand was not observed.” left out

[3] = biological target: T3, fibroblast collagenase-1 catalytic domain (HFC) (Homo sapiens, UniProt P03956); experiment: Fluorometric MCA-peptide hydrolysis assay, fibroblast collagenase-1 (HFC); format: biochemical; conditions: apparent Ki; 10 μM MCA peptide substrate, 37° C., pH 7.5; read-out: HFC (Ki,app)
T3 construct: The catalytic domain of human collagenase-1 was expressed as a fusion protein with ubiquitin in E. coli; ubiquitin (cleaved yes); made in house; host or cells: E. coli
T3 sequence (P03956 100-269 limits assumed): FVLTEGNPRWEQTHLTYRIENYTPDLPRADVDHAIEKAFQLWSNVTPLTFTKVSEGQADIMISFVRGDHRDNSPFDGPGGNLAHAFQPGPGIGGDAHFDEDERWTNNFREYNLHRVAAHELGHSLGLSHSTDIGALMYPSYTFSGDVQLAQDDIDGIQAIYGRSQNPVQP
Method: The catalytic domain of human collagenase-1 was expressed as a fusion protein with ubiquitin in E. coli (see Gehring, E. R., J Biol. Chem., 1995, 270, 22507). After purification of the fusion protein, the fibroblast collagenase-1 catalytic domain (HFC) was released either by treatment with purified, active stromelysin-1 (1:50 w/w ratio), which generated nearly 100% N-terminal Phe1, or by autoprocessing the concentrated collagenase-1 fusion and then incubating at 37° C. for 1 hour. Final purification was completed using zinc chelate chromatography.
as §1, §2, §3

Human matrilysin (Matr) = biological target: T4, Human matrilysin (Matr) (Homo sapiens, UniProt P09237); experiment: Fluorometric MCA-peptide hydrolysis assay, matrilysin (Matr); format: biochemical; conditions: apparent Ki; 10 μM MCA peptide substrate, 37° C., pH 7.5; read-out: Matr (Ki,app)
T4 construct: the catalytic domain was liberated by treatment with 2 mM APMA at 37° C. for 2 hours; ubiquitin (cleaved yes); made in house; host or cells: E. coli
T4 sequence (P09237 95-267): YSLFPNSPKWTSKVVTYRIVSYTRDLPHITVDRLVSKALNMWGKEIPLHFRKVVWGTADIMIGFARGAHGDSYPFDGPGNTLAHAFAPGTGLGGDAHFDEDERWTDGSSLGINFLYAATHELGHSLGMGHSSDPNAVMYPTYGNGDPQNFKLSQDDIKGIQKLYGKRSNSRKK
Method: Human matrilysin (Matr) was expressed in E. coli as a fusion protein with ubiquitin. After purification of the matrilysin/ubiquitin fusion from inclusion bodies, the catalytic domain was liberated by treatment with 2 mM APMA at 37° C. for 2 hours. Final purification was complete using copper chelate chromatography.
as §1, §2, §3

[4] = biological target: T5, human progelatinase A (GelA), catalytic and fibronectin-like portion (Homo sapiens, UniProt P08253); experiment: Fluorometric MCA-peptide hydrolysis assay, gelatinase A (GelA); format: biochemical; conditions: apparent Ki; 10 μM MCA peptide substrate, 37° C., pH 7.5
T5 construct: The catalytic and fibronectin-like portion of human progelatinase A (GelA) was expressed as a fusion protein with ubiquitin; ubiquitin; made in house; host or cells: E. coli
Method: The catalytic and fibronectin-like portion of human progelatinase A (GelA) was expressed as a fusion protein with ubiquitin in E. Coli. Assays were carried out on autocatalytically activated material.
as §1, §2, §3

T5 sequence (P08253 110-465 limits assumed): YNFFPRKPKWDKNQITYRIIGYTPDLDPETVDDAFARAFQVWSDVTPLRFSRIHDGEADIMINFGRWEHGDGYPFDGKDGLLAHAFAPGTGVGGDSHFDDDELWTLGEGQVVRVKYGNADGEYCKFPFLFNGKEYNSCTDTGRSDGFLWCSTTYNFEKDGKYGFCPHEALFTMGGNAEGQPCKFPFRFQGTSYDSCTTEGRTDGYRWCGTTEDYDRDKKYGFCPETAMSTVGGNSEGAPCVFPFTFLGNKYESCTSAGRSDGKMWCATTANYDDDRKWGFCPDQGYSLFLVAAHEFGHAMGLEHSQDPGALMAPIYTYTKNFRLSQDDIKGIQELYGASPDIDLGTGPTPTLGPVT
T1 sequence (P08254 100-272 limits assumed): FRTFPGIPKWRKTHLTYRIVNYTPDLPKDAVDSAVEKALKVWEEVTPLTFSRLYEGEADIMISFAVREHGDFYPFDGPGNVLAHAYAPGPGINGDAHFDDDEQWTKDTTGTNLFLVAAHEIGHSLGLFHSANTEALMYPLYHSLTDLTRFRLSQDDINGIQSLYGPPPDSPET

| SMILES | Ki [1] | Ki [2] | melting point | Ki [3] | Ki (Human matrilysin (Matr)) | GelA (Ki,app) [4] |
| --- | --- | --- | --- | --- | --- | --- |
| CC(C)(C)[C@@H](CO)NC(=O)[C@@H](CC(=O)NO)n1cnc(-c2ccc(-c3ccccc3)cc2)c1 [Example 19(c), 3(R)-(3-Biphenyl-4-yl-1H-imidazol-1-yl)-N^4-(2,2-dimethyl-1(S)-hydroxymethylpropyl)-N^1-hydroxy-succindiamide] | 17 nM | 6.5 nM | 157.5 to 160 °C | 45000 nM | – | – |
| CNC(=O)[C@@H](NC(=O)C(CC(=O)NO)n1cnc(-c2ccc(-c3ccccc3)cc2)c1)C(C)(C)C (mixture of isomers) [Example 19(e)] | 2.3 nM | 0.13 nM | – | 310 nM | – | – |
| CC(C)(C)[C@@H](CO)NC(=O)[C@H](CC(=O)NO)n1cnc(-c2ccc(-c3ccccc3)cc2)c1 [Example 19(d), 3(S)-(3-Biphenyl-4-yl-1H-imidazol-1-yl)-N^4-(2,2-dimethyl-1(S)-hydroxymethylpropyl)-N^1-hydroxy-succindiamide] | 120 nM | 43 nM | 134.5 to 136.5 °C | > 100000 nM | – | – |
| CNC(=O)[C@@H](NC(=O)C(CC(=O)O)n1cnc(-c2ccc(-c3ccccc3)cc2)c1)C(C)(C)C (mixture of isomers) [Example 18(c)] | 180 nM | 31 nM | 187 to 188.2 °C | 24000 nM | – | – |
| COC(=O)c1ccc(NC(=O)[C@H](CC(C)C)NC(=O)[C@@H](CC(=O)O)c2cccs2)cc1 [Example 17(a), 4-[2(S)-(2(R)-Carboxymethyl-2-(thien-2-yl)acetylamino]-4-methyl-valeroyl]-aminobenzoic Acid Methyl Ester] | 965 nM | – | 197 to 200 °C | 32000 nM | 454 nM | – |
| O=C(O)C[C@H](C(=O)N[C@H](CO)c1ccccc1)n1ccc(-c2ccc(-c3ccncc3)cc2)c1 [Example 5(b), N-(2-Hydroxy-1(S)-phenylethyl)-3(R)-[3-[4-(pyridin-4-yl)phenyl]-1H-pyrrol-1-yl]succinamic Acid] | 30 nM | 9.1 nM | – | > 12000 nM | 5200 nM | 1.04 nM |
| CNC(=O)[C@@H](NC(=O)[C@@H](CC(=O)O)n1ccc(-c2ccncc2)c1)C(C)(C)C [Example 1(d), N-[2,2-Dimethyl-1(S)-(methylcarbamoyl)propyl]-3(R)-[3-(pyridin-4-yl)-1H-pyrrol-1-yl]succinamic Acid] | 1220 nM | 24 nM | 145 to 148 °C | 4500 nM | – | 3.9 nM |
| O=C(O)C[C@H](C(=O)N[C@@H]1c2ccccc2C[C@H]1O)n1ccc(-c2ccc(-c3ccncc3)cc2)c1 [Example 6(a), N-(2(R)-Hydroxyindan-1(R)-yl)-3(R)-[3-[4-(pyridin-4-yl)phenyl]-1H-pyrrol-1-yl]succinamic Acid] | 15 nM | 15.6 nM | – | 8860 nM | 1500 nM | 6.62 nM |
| O=C(CC(C(=O)N[C@H]1CCCCNC1=O)n1cnc(-c2ccc(-c3ccccc3)cc2)c1)NO (mixture of isomers) [Example 19(a)] | 31 nM | 43 nM | – | 57000 nM | – | – |
| NC(=O)c1ccc(-c2ccc(-c3ccn([C@H](CC(=O)O)C(=O)N[C@H](CO)Cc4ccccc4)c3)cc2)cc1 [Example 4(b), N-(1-Benzyl-2-hydroxyethyl)-3(R)-[3-(4′-carbamoylbiphenyl-4-yl)-1H-pyrrol-1-yl]succinamic Acid] | 23 nM | 2.13 nM | 218 to 220 °C | – | 1520 nM | 1.11 nM |
| CC(C)(C)[C@H](NC(=O)[C@@H](CC(=O)O)n1ccc(-c2ccc(-c3ccc(C#N)cc3)cc2)c1)C(=O)Nc1ccncc1 [Example 5(d), 3(R)-[3-(4′-Cyanobiphenyl-4-yl)-1H-pyrrol-1-yl]-N-[2,2-dimethyl-1(S)-(pyridin-4-ylcarbamoyl)propyl]succinamic Acid Formate Salt] | 1.6 nM | 0.23 nM | – | > 2000 nM | 4.5 nM | 0.028 nM |
| CC(C)(C)[C@@H](CO)NC(=O)C(CC(=O)NO)n1cnc(-c2ccc(-c3ccccc3)cc2)c1 (mixture of isomers) [Example 19(b), 3(RS)-(3-Biphenyl-4-yl-1H-imidazol-1-yl)-N^4-(2,2-dimethyl-1(S)-hydroxymethylpropyl)-N^1-hydroxy-succindiamide] | 17 nM | 9.7 nM | – | 66000 nM | – | – |
| COC(=O)c1ccc(NC(=O)[C@H](CC(C)C)NC(=O)[C@@H](CC(=O)O)n2ccc(-c3ccc(-c4ccccc4)cc3)c2)cc1 [Example 1(k), 4-[2S-[2(R)-[3-(Biphenyl-4-yl)-1H-pyrrol-1-yl]-3-carboxy-propionylamino]-4-methyl-pentanoylamino]benzoic Acid Methyl Ester] | 0.15 nM | 40 nM | 209 to 211 °C | – | 11 nM | 1.9 nM |
